Several values for one entry are separate records, joined by “and”; a condition that tells them apart may be missing. Identical values can stand only once.
Legend:
[1] = system: FtsA self-interaction; assay: FRET (acceptor photobleaching) self-interaction of FtsA on supported lipid bilayers; format: binding, E. coli
Source text: To directly measure FtsA self-interaction in our fluorescence microscopy experiments, we established a FRET (Förster resonance energy transfer)-based assay using FtsA labelled with either Cy5 (acceptor) or Cy3 (donor). […] We then decided to use this approach to measure the degree of FtsA self-interaction on supported lipid membranes by quantifying the increase in donor fluorescence after photobleaching the acceptor fluorophore[30]–[32] (Fig. 3c–e and Fig. S3d). […] As a negative control, we also attached the Hexahistidine-SUMO-tag (His-SUMO) labelled with Cy5 and Cy3 to membranes with an increasing density of Tris-NTA lipids.
Equimolar concentrations of Cy3- and Cy5-labelled FtsA, supplemented with 20% unlabelled FtsA were used to study FRET and FRAP. Five pre-bleach frames were acquired, followed by acceptor photobleaching of a rectangular ROI with 40% 641 nm laser power and a dwell size of 1 µs/pixel, 75% overlapping lines. The recovery of the signal or the increase in donor intensity were measured with either two frames or one frame per second.
Bleaching the acceptor dye leads to an increase in the donor intensity, which can be used to quantify the Foerster Resonance energy transfer (FRET)[48]. FRET efficiency was quantified with E%=Ipost/Ipost+Ipre⋅100 , where Ipost is the intensity of the […] and Ipre is the […]. […] To extract the contribution of both processes, we adjusted a routine recently published by Gerganova et al.[33]. In short, the code provides the contribution of both modes of recovery by analysing the shape of the fluorescence recovery profile. […] Contribution of diffusion leads to a change of the slope of the outer borders of the bleached region (S4h right). Thus, by measuring the change of the slope of the border recovery, diffusion and simple on/off binding can be distinguished. We developed “FRAPdiff”, a graphical user interface, which uses the original fit routine by David Rutkowski. It can be used directly on.tiff movies with annotated bleach regions as ImageJ ROIs. In addition, we added optional bleach correction, user selectable projection axis (x or y), and optional mirroring of the recovery profiles, if bleaching was not symmetric. The original fit routine for estimating the recovery and diffusion dynamics can be found at https://github.com/davidmrutkowski/1DReflectingDiffusion. FRAPdiff is available at 10.5281/zenodo.6400639[49] under the GPLv3 open-source license.

[2] = system: FtsZ
Experimental: Additionally, the reaction chamber contained 4 mM ATP and 4 mM GTP, as well as a scavenging system to minimize photobleaching effects: 30 mM d-glucose, 0.050 mg ml^−1 Glucose Oxidase, 0.016 mg ml^−1 Catalase, 1 mM DTT and 1 mM Trolox. Prior addition of all components a corresponding buffer volume was removed from the chamber to obtain a total reaction volume of 100 µl. The dynamic protein pattern was monitored by time-lapse TIRF microscopy at one frame per 2 s and 50 ms exposure time.

Molecule: FtsA WT: wild-type E. coli actin-homologue FtsA, membrane anchor of FtsZ
- FRET efficiency, mean ([1]; 0.1 µM FtsA + FtsN&Z): 15.28%
- FRET efficiency, mean ([1]; 0.1 µM FtsA + FtsN): 8.5880% and 8.59%
- FRET efficiency, mean ([1]; 0.1 µM FtsA + FtsZ): 7.8480% and 7.85%
- FRET efficiency, mean ([1]; 0.1 µM FtsA alone): 8.1133%
- FRET efficiency, mean ([1]; 0.2 µM FtsA + FtsN&Z): 17.79%
- FRET efficiency, mean ([1]; 0.2 µM FtsA + FtsN): 12.6840% and 12.68%
- FRET efficiency, mean ([1]; 0.2 µM FtsA + FtsZ): 12.5828% and 12.58%
- FRET efficiency, mean ([1]; 0.2 µM FtsA alone): 16.69%
- FRET efficiency, mean ([1]; 0.4 µM FtsA + FtsN&Z): 30.1680% and 30.17%
- FRET efficiency, mean ([1]; 0.4 µM FtsA + FtsN): 27.2922% and 27.29%
- FRET efficiency, mean ([1]; 0.4 µM FtsA + FtsZ): 17.7412% and 17.74%
- FRET efficiency, mean ([1]; 0.4 µM FtsA alone): 22.27%
- FRET efficiency ([1]; 0.4 µM FtsA with FtsNcyto and FtsZ, p-value 0.64): 30.2 ± 9.6%
- FRET efficiency ([1]; 0.4 µM FtsA, p-value 6.12 × 10^−9): 22.1 ± 5.7%
- FRET efficiency, mean ([1]; 0.8 µM FtsA + FtsN&Z): 34.2167% and 34.22%
- FRET efficiency, mean ([1]; 0.8 µM FtsA + FtsN): 29.89%
- FRET efficiency, mean ([1]; 0.8 µM FtsA + FtsZ): 27.1326% and 27.13%
- FRET efficiency, mean ([1]; 0.8 µM FtsA alone): 31.17%
- FRET efficiency ([1]; Fig. S3f, 0.2µM FtsA + N/Z, replicate 1): 17.94%
- FRET efficiency ([1]; Fig. S3f, 0.2µM FtsA + N/Z, replicate 2): 16.55%
- FRET efficiency ([1]; Fig. S3f, 0.2µM FtsA + N/Z, replicate 3): 18.88%
- FRET efficiency ([1]; Fig. S3f, 0.2µM FtsA + N, replicate 1): 7.76%
- FRET efficiency ([1]; Fig. S3f, 0.2µM FtsA + N, replicate 2): 9.38%
- FRET efficiency ([1]; Fig. S3f, 0.2µM FtsA + N, replicate 3): 9.72%
- FRET efficiency ([1]; Fig. S3f, 0.2µM FtsA + Z, replicate 1): 9.62%
- FRET efficiency ([1]; Fig. S3f, 0.2µM FtsA + Z, replicate 2): 10.06%
- FRET efficiency ([1]; Fig. S3f, 0.2µM FtsA + Z, replicate 3): 7.69%
- FRET efficiency ([1]; Fig. S3f, 0.2µM FtsA, replicate 1): 12.55%
- FRET efficiency ([1]; Fig. S3f, 0.2µM FtsA, replicate 2): 13.62%
- FRET efficiency ([1]; Fig. S3f, 0.2µM FtsA, replicate 3): 23.13%
- FRET efficiency ([1]; Fig. S3f, 0.4µM FtsA + N/Z, replicate 1): 16.64%
- FRET efficiency ([1]; Fig. S3f, 0.4µM FtsA + N/Z, replicate 2): 39.69%
- FRET efficiency ([1]; Fig. S3f, 0.4µM FtsA + N/Z, replicate 3): 38.87%
- FRET efficiency ([1]; Fig. S3f, 0.4µM FtsA + N, replicate 1): 18.29%
- FRET efficiency ([1]; Fig. S3f, 0.4µM FtsA + N, replicate 2): 25.77%
- FRET efficiency ([1]; Fig. S3f, 0.4µM FtsA + N, replicate 3): 38.25%
- FRET efficiency ([1]; Fig. S3f, 0.4µM FtsA + Z, replicate 1): 14.31%
- FRET efficiency ([1]; Fig. S3f, 0.4µM FtsA + Z, replicate 2): 10.18%
- FRET efficiency ([1]; Fig. S3f, 0.4µM FtsA + Z, replicate 3): 12.8%
- FRET efficiency ([1]; Fig. S3f, 0.4µM FtsA, replicate 1): 20.04%
- FRET efficiency ([1]; Fig. S3f, 0.4µM FtsA, replicate 2): 14.17%
- FRET efficiency ([1]; Fig. S3f, 0.4µM FtsA, replicate 3): 22.75%
- FRET efficiency ([1]; Fig. S3n, AMP PNP, 0.10 µM FtsA, replicate 1): 2.62%
- FRET efficiency ([1]; Fig. S3n, AMP PNP, 0.10 µM FtsA, replicate 2): -0.01%
- FRET efficiency ([1]; Fig. S3n, AMP PNP, 0.20 µM FtsA, replicate 1): 5.42%
- FRET efficiency ([1]; Fig. S3n, AMP PNP, 0.20 µM FtsA, replicate 2): 10.85%
- FRET efficiency ([1]; Fig. S3n, AMPPNP, 0.10 µM FtsA, summary value): 1.30%
- FRET efficiency ([1]; Fig. S3n, AMPPNP, 0.20 µM FtsA, summary value): 8.14%
- FRET efficiency ([1]; Fig. S3n, AMPPNP, 0.40 µM FtsA, summary value): 9.64%
- FRET efficiency ([1]; Fig. S3n, AMPPNP, 0.80 µM FtsA, summary value): 10.07%
- FRET efficiency ([1]; Fig. S3n, ATP, 0.10 µM FtsA, summary value): 8.36%
- FRET efficiency ([1]; Fig. S3n, ATP, 0.20 µM FtsA, summary value): 16.69%
- FRET efficiency ([1]; Fig. S3n, ATP, 0.40 µM FtsA, summary value): 22.27%
- FRET efficiency ([1]; Fig. S3n, ATP, 0.80 µM FtsA, summary value): 31.17%
- FRET efficiency ([1]; Fig. S3n, ATPgS, 0.10 µM FtsA, summary value): 4.97%
- FRET efficiency ([1]; Fig. S3n, ATPgS, 0.20 µM FtsA, summary value): 9.83%
- FRET efficiency ([1]; Fig. S3n, ATPgS, 0.40 µM FtsA, summary value): 14.66%
- FRET efficiency ([1]; Fig. S3n, ATPgS, 0.80 µM FtsA, summary value): 21.79%
- effect of FtsNcyto on FRET ([1]; presence of FtsNcyto): small FRET increase

B1: FtsA R286W (protein)
chain: MIKATDRKLVVGLEIGTAKVAALVGEVLPDGMVNIIGVGSCPSRGMDKGGVNDLESVVKCVQRAIDQAELMADCQISSVYLALSGKHISCQNEIGMVPISEEEVTQEDVENVVHTAKSVRVRDEHRVLHVIPQEYAIDYQEGIKNPVGLSGVRMQAKVHLITCHNDMAKNIVKAVERCGLKVDQLIFAGLASSYSVLTEDERELGVCVVDIGGGTMDIAVYTGGALRHTKVIPYAGNVVTSDIAYAFGTPPSDAEAIKVRHGCALGSIVGKDESVEVPSVGGRPPWSLQRQTLAEVIEPRYTELLNLVNEEILQLQEKLRQQGVKHHLAAGIVLTGGAAQIEGLAACAQRVFHTQVRIGAPLNITGLTDYAQEPYYSTAVGLLHYGKESHLNGEAEVEKRVTASVGSWIKRLNSWLRKEF
modifications: Cy3 or Cy5 at the N-terminus in the labelled form (labelled CLEPTGG peptide conjugated to the 5xGly tag by sortagging); unlabelled protein also used; left off: TwinStrep-SUMO, N-terminal, cleaved | 5x
- FtsZ fluorescence intensity compared to the wild-type protein [2]: increased

Source: paper PMC9098913, “In vitro reconstitution of Escherichia coli divisome activation” (Nature Communications, 2022)
